The record followed here is ChEMBL document CHEMBL3271950, “2,3-Dihydroxyphenethanolamine as an adrenergic agent” (J Med Chem, 1976).

Series [1] deals with Rattus norvegicus. The series can be described thus: Decrease in blood pressure in rat at 120 mg/kg. In kind it is functional, organism-based. More on the design: dose 120 mg/kg.
Series [2] addresses T1, Catechol O-methyltransferase (Homo sapiens) (UniProt P21964).
T1 sequence (whole entry): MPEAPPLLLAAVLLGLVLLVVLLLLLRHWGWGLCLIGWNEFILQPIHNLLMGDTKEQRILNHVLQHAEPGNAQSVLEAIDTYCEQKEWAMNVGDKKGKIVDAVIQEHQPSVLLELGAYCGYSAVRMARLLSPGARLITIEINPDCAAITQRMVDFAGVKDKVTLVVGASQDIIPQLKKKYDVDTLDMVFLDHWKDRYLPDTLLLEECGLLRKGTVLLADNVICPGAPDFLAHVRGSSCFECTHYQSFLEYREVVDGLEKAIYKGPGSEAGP
Kind of series: Inhibition of catechol-O-methyltransferase (unknown origin)-mediated l-norepinephrine methylation. The conditions noted are these: concentration not given here.

For series [3], the species on record is Rattus norvegicus. Kind of series: Potentiation of l-norepinephrine-induced adrenergic receptor activity in rat vas deferens assessed as contraction. The format is tissue-based.
Series [4] is filed under the species Rattus norvegicus. The series can be described thus: Agonist activity at adrenergic receptor in rat vas deferens at 13 ug/ml. The format is tissue-based.
Series [5] addresses T1, Catechol O-methyltransferase (Homo sapiens). Kind of series: Activity of catechol-O-methyltransferase (unknown origin).
Series [6] relates to Rattus norvegicus. The series can be described thus: Increase blood pressure in rat at 100 mg/kg. In kind it is functional, organism-based. Also noted: dose 100 mg/kg.
Series [7] in a line: Metal chelating activity of the compound assessed as Cu2+ complex formation at 1 x 10' -3 M by spectrometry. In kind it is physicochemical. The conditions noted are these: 1000 µM.
Series [8] relates to Rattus norvegicus. The series can be described thus: Increase blood pressure in rat at 1 mg/kg. In kind it is functional, organism-based. Also noted: dose 1 mg/kg.
The species entered for series [9] is Rattus norvegicus. Kind of series: Agonist activity at adrenergic receptor in rat vas deferens at 0.165 ug/ml. The format is tissue-based.
For series [10], the system named is Rattus norvegicus. Kind of series: Decrease in blood pressure in rat at 0.150 mg/kg. The format is functional, organism-based. Also noted: dose 0.15 mg/kg.

Activity calls are given as the source filed them. The calls are words filed in the database; no cut-off is given here.

Take `CC(C)NCC(O)c1cccc(O)c1O` (configuration not stated): the result with Rattus norvegicus [1] was Active.
Take `Br.NCC(O)c1cccc(O)c1O` (configuration not stated): the inhibition in series [2] came out at 25%. Moreover, the outcome in the series filed under Rattus norvegicus [3], in the series filed under Rattus norvegicus [4] and with Rattus norvegicus [6] was Active. The values for the Activity in series [5] and in series [7] were less than 5% and “Active”, respectively.
In the case of `Oc1ccccc1O` [CATECHOL], the result in series [7] was Active.
Still for that read-out and setting: with `Br.NC[C@H](O)c1ccc(O)c(O)c1` the entry was “Active”.
With `NC[C@@H](O)c1ccc(O)c(O)c1`, the outcome in the series on Rattus norvegicus [8] and in the series filed under Rattus norvegicus [9] was Active.
Regarding `CC(C)NCC(O)c1ccc(O)c(O)c1` (racemic), the result with Rattus norvegicus [10] was Active.
